Each structure is given as a SMILES string. Bounds are passed on as bounds.

This assay relates to NCI-H295R. The assay is described as follows: IC50 (antiproliferative, ATP content). The settings on record: 48 h. In a few lines:
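Cell viability of adrenocortical carcinoma cells was assessed as ATP by CellTiter-Glo luminescence. Cells at 1500 per well in 1536-well plates, in serum-free DMEM with ITS, received compounds by pin transfer at 8 final concentrations (0.6 nM–46 µM) after overnight culture and were then held 48 h at 37 °C, 5% CO2. IC50 was calculated by logistic fitting against vehicle and positive-control wells, compounds with no concentration response being recorded as above the top dose.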
On to `CC(C)NNC(=O)c1ccncc1.O=S(=O)(O)O`, for which the IC50 is > 46 µM.

Regarding `CCOC(=O)C=C(C)C=CC=C(C)C=Cc1c(C)cc(OC)c(C)c1C`, the IC50 was > 46 µM.

Consider `O[C@@H]1CC[C@@H](/C=C(C)/[C@H]([C@H](C)[C@@H](O)CC4=O)O[C@@]([C@H]2N(C(C([C@]3(O)O[C@H]([C@H](C[C@H](C/C(C)=C/[C@H]4CC=C)C)OC)[C@@H](OC)C[C@H]3C)=O)=O)CCCC2)=O)C[C@H]1OC`, for which the IC50 was > 46 µM.

For `C[N+]1(C)CCCC(OC(=O)C(O)(c2ccccc2)c2ccccc2)C1.[Br-]` (centres undefined), the 50% inhibitory concentration (IC50) is > 46 µM.

In the case of `CCCCC/C=C\C/C=C\CCCCCCCC(=O)O`, the IC50 was > 46 µM.

Turning to `Br.CC(N)Cc1ccc(O)cc1` (centres undefined), the IC50 is > 46 µM.

Regarding `CCCN1CCC[C@@H]2Cc3nc(N)ncc3C[C@H]21`, the IC50 was > 46 µM.

On to `[Na+].[Na+].[O-]C(=O)c4ccccc4C=2c3cc(Br)c([O-])c(Br)c3OC=1C=2\C=C(\Br)C(=O)C=1Br`, for which the IC50 is > 46 µM.

In the case of `CC(Cc1ccccc1)NC=O` (centres undefined), the half-inhibitory concentration (IC50) is > 46 µM.

With `CC(C)=CCC1C(=O)N(c2ccccc2)N(c2ccccc2)C1=O`, the IC50 is > 46 µM.

Turning to `Cc1cccc(C)c1Nc1ncccc1C(=O)O`, the IC50 is > 46 µM.

On to `CCS(=O)(=O)C(C)(C)S(=O)(=O)CC`, for which the IC50 is > 46 µM.

On to `CN(C)C/C=C(/c1ccc(Br)cc1)c1cccnc1.Cl.Cl.O`, for which the IC50 is > 46 µM.

As to `NC(=O)CN1CCCC1=O`, the half-maximal inhibitory concentration (IC50) is > 46 µM.

For the molecule `C=CC[N@@H+]1/C(=C/CO)[C@@H]2C[C@H]3[C@H]1CC[C@]31c3ccccc3N3C=C4[C@@H]5N(C=C2[C@H]31)c1ccccc1[C@@]51CC[C@H]2[C@H]1C[C@@H]4/C(=C\CO)[N@@H+]2CC=C.[Cl-].[Cl-]`, the IC50 is > 46 µM.

Take `CN1C(=O)COc2c(C(=O)NC3CN4CCC3CC4)cc(Cl)cc21` (centres undefined): the half-inhibitory concentration (IC50) was > 46 µM.

With `CC1CCN(CCCC(=O)c2ccc(F)cc2)CC1`, the half-inhibitory concentration (IC50) is > 46 µM.

On to `O=C2N1[C@]([C@@]([H])2NC(CC3=CC=CC=C3)=O)([H])SC(C)(C)[C@@H]1[C@@](O)=O.O=C5N4[C@]([C@@]([H])5NC(CC6=CC=CC=C6)=O)([H])SC(C)(C)[C@@H]4[C@@](O)=O.C7(CNCCNCC8=CC=CC=C8)=CC=CC=C7`, for which the IC50 is > 46 µM.

Consider `CC(=O)OCC(=O)[C@@]53/N=C(/C)O[C@@H]5C[C@H]2[C@@H]4CC\C1=C\C(=O)\C=C/[C@]1(C)[C@H]4[C@@H](O)C[C@@]23C`, for which the IC50 was > 46 µM.

`CC1C(=O)CC2C3(C)CCC2(C(C)C(=O)O)C(=O)C13` (centres undefined): the 50% inhibitory concentration (IC50) is > 46 µM.

Take `C=C[C@H]1CN2CC[C@H]1C[C@H]2[C@H](O)c1ccnc2ccc(OC)cc12`: the concentration for half-maximal inhibition (IC50) is > 46 µM.

On to `CC1COc2c(N3CCN(C)CC3)c(F)cc3c(=O)c(C(=O)O)cn1c23` (centres undefined), for which the IC50 is > 46 µM.

Consider `Nc1nc(=O)c2nc(CNc3ccc(C(=O)N[C@@H](CCC(=O)O)C(=O)O)cc3)cnc2[nH]1`, for which the IC50 is > 46 µM.

On to `NCC[C@H](O)C(=O)N[C@@H]1C[C@H](N)[C@@H](O[C@H]2O[C@H](CN)CC[C@H]2N)[C@H](O)[C@H]1O[C@H]1O[C@H](CO)[C@@H](O)[C@H](N)[C@H]1O.O=S(=O)(O)O`, for which the concentration for half-maximal inhibition (IC50) is > 46 µM.

As to `O=C(C)N(CC4)CCN4C(C=C5)=CC=C5OC[C@]2([H])O[C@@](OC2)(CN3C=NC=C3)[C@@]1=CC=C(Cl)C=C1Cl`, the IC50 was > 46 µM.

Regarding `COc1ccc(CCN(C)CCCC(C#N)(c2cc(OC)c(OC)c(OC)c2)C(C)C)cc1OC.Cl` (centres undefined), the half-inhibitory concentration (IC50) was > 46 µM.

For `Cc1nc2c([nH]1)c(=O)n(C)c(=O)n2Cc1ccco1`, the IC50 is > 46 µM.

For `COC(=O)CC[C@H](N)C(=O)O`, the IC50 is > 46 µM.

For the molecule `O=S(=O)(O)O.Oc1ccc(C(O)CNCCCCCCNCC(O)c2ccc(O)c(O)c2)cc1O` (centres undefined), the IC50 was > 46 µM.

Take `[H][C@@]1(CC\C3=C(C4=CC=CS4)/C2=CC=CS2)[N@+](CCCC1)(C3)C.[Br-]`: the IC50 was > 46 µM.

As for `CCCCCCCCCCCCCCC[C@H](O)[C@H](N)CO`, the IC50 was > 46 µM.

In the case of `CC(=O)Nc1ccccc1`, the half-inhibitory concentration (IC50) is > 46 µM.

With `OC(=O)[C@@H](C(C)C)N(Cc1ccc(cc1)c2ccccc2C\3=N\N=N/N/3)C(=O)CCCC`, the half-maximal inhibitory concentration (IC50) is > 46 µM.

Regarding `CN1Cc2c(N)cccc2C(c2ccccc2)C1.O=C(O)/C=C\C(=O)O` (centres undefined), the IC50 is > 46 µM.

Consider `N[C@@H](Cc1ccc(O)cc1)C(=O)O`, for which the IC50 was > 46 µM.

For `CC(=O)Oc1c(C)cc(OCC(O)CNC(C)C)c(C)c1C` (centres undefined), the 50% inhibitory concentration (IC50) is > 46 µM.

With `CCOC(=O)c1ccc(OC(=O)CCCCCNC(=N)[NH3+])cc1.CS(=O)(=O)[O-]`, the IC50 was > 46 µM.

For `Cc1ccc(C(=O)Nc2ccc(S(=O)(=O)O)c3cc(S(=O)(=O)O)cc(S(=O)(=O)O)c23)cc1NC(=O)c1cccc(NC(=O)Nc2cccc(C(=O)Nc3cc(C(=O)Nc4ccc(S(=O)(=O)O)c5cc(S(=O)(=O)O)cc(S(=O)(=O)O)c45)ccc3C)c2)c1`, the half-inhibitory concentration (IC50) is > 46 µM.

Take `[N-]=[N+]=CC(=O)OC[C@H](N)C(=O)O`: the half-inhibitory concentration (IC50) was > 46 µM.

Turning to `CN(C)[C@@H]1C(O)=C(C(N)=O)C(=O)[C@@]2(O)C(O)=C3C(=O)c4c(O)cccc4[C@@](C)(O)[C@H]3C[C@@H]12.Cl`, the half-maximal inhibitory concentration (IC50) was > 46 µM.

In the case of `O=[C@](OC)[C@H]3[C@@]2([H])C[C@](N4C[C@]([H])2C[C@H](OC)[C@@H]3OC)([H])C1=C(CC4)C(C=C5)=C(C=C5OC)N1.Cl`, the IC50 is > 46 µM.

In the case of `Clc1ccc(C(Cn2ccnc2)OCc2c(Cl)cccc2Cl)c(Cl)c1` (centres undefined), the IC50 was > 46 µM.

As for `CCN1CCCC(OC(=O)C(c2ccccc2)c2ccccc2)C1.Cl` (centres undefined), the half-maximal inhibitory concentration (IC50) is > 46 µM.

Take `CO`: the IC50 was > 46 µM.

On to `O=C([O-])CN(CCN(CC(=O)[O-])CC(=O)[O-])CC(=O)[O-].[Fe+3].[Na+]`, for which the concentration for half-maximal inhibition (IC50) was > 46 µM.

Consider `NC1CCCCC1.NC1CCCCC1.O=P(O)(O)OC[C@H](O)CO`, for which the half-inhibitory concentration (IC50) was > 46 µM.

Regarding `c1ccc2[nH]c(-c3cscn3)nc2c1`, the concentration for half-maximal inhibition (IC50) was > 46 µM.

Regarding `NC(=O)NS(=O)(=O)c1ccc(N)cc1`, the half-maximal inhibitory concentration (IC50) was > 46 µM.

In the case of `Cl.NCCS`, the IC50 was > 46 µM.

Take `Cl.Nc1c2c(nc3c1CCC3)CCCC2.O`: the IC50 was > 46 µM.

For the molecule `COCCCC/C(=N\OCCN)c1ccc(C(F)(F)F)cc1`, the half-maximal inhibitory concentration (IC50) was > 46 µM.

Consider `CCOc1ccccc1C(N)=O`, for which the half-inhibitory concentration (IC50) was > 46 µM.

Take `C[C@H]1c2cccc(O)c2C(=O)C2=C(O)[C@]3(O)C(=O)C(C(N)=O)=C(O)[C@@H](N(C)C)[C@@H]3[C@@H](O)[C@@H]21.Cl`: the IC50 is > 46 µM.

With `NS(=O)(=O)Cc1noc2ccccc12`, the half-maximal inhibitory concentration (IC50) is > 46 µM.

On to `CC[C@H](C)CCCCC(=O)N[C@@H](CCN)C(=O)N[C@H](C(=O)N[C@@H](CCN)C(=O)N[C@H]1CCNC(=O)[C@H]([C@@H](C)O)NC(=O)[C@H](CCN)NC(=O)[C@H](CCN)NC(=O)[C@H](CC(C)C)NC(=O)[C@@H](CC(C)C)NC(=O)[C@H](CCN)NC1=O)[C@@H](C)O.O=S(=O)(O)O`, for which the concentration for half-maximal inhibition (IC50) is > 46 µM.

With `CC(C)C(=O)Nc1ccc([N+](=O)[O-])c(C(F)(F)F)c1`, the concentration for half-maximal inhibition (IC50) was > 46 µM.

Turning to `CCCCCCC[N+](CC)(CC)CCCCc1ccc(Cl)cc1.Cc1ccc(S(=O)(=O)[O-])cc1`, the IC50 is > 46 µM.

`O=c1[nH]cc(F)c(=O)[nH]1`: the IC50 is > 46 µM.

Turning to `C[C@@H](CC)C(=O)O[C@H]2C[C@@H](C)\C=C3\C=C/[C@H](C)[C@H](CC[C@@H]1C[C@@H](O)CC(=O)O1)[C@@H]23`, the IC50 is > 46 µM.

On to `O=c1oc2cc(O)ccc2s1`, for which the IC50 was > 46 µM.

In the case of `O=C1/C(=C2\Nc3ccccc3C2=O)Nc2ccccc21`, the 50% inhibitory concentration (IC50) was > 46 µM.

Regarding `[C@@]153[C@@H](\C(O)=C(/C[C@@]1([C@H]2CC[C@]4([C@H]([C@@H]2CC3)CC[C@@H]4O)C)C)C#N)O5`, the IC50 is > 46 µM.

As to `C#C[C@]1(O)CC[C@H]2[C@@H]3CCC4=C(CCC(=O)C4)[C@H]3CC[C@@]21C`, the IC50 was > 46 µM.

Consider `CNC[C@H](O)c1ccc(O)c(O)c1`, for which the 50% inhibitory concentration (IC50) is > 46 µM.

For `O[C@]([C@@H]1CSCN1)=O`, the half-inhibitory concentration (IC50) was > 46 µM.

Consider `O=C1OC(c2ccc(O)cc2)(c2ccc(O)cc2)c2ccccc21`, for which the half-maximal inhibitory concentration (IC50) was > 46 µM.

For `CC1(C)S[C@@H]2[C@H](/N=C/N3CCCCCC3)C(=O)N2[C@H]1C(=O)O`, the IC50 is > 46 µM.

Consider `N=C(N)NC(=O)c1nc(Cl)c(N)nc1N`, for which the concentration for half-maximal inhibition (IC50) is > 46 µM.

For `CCOC(=O)c1cccnc1`, the IC50 is > 46 µM.

As for `CCCC1CCCCN1` (centres undefined), the concentration for half-maximal inhibition (IC50) is > 46 µM.

Regarding `CC(C)[C@H](CC)CC[C@@H](C)[C@H]3CC[C@H]2[C@@H]4C\C=C1\C[C@@H](O)CC[C@]1(C)[C@H]4CC[C@@]23C`, the concentration for half-maximal inhibition (IC50) is > 46 µM.

Regarding `O=C(CS(=O)C(c1ccccc1)c1ccccc1)NO` (centres undefined), the IC50 was > 46 µM.

For the molecule `C[C@H](Cc1ccc(O)c(O)c1)[C@@H](C)Cc1ccc(O)c(O)c1`, the 50% inhibitory concentration (IC50) is > 46 µM.

Regarding `Cc1ncc([N+](=O)[O-])n1CC(O)CCl` (centres undefined), the IC50 is > 46 µM.

On to `O=C([O-])c1ccc(NC(=O)[C@H](Cc2ccc(O)cc2)NC(=O)c2ccccc2)cc1.[Na+]`, for which the half-maximal inhibitory concentration (IC50) was > 46 µM.

For `O=C1O[C@H](CO)[C@@H](O)[C@H](O)[C@H]1O`, the concentration for half-maximal inhibition (IC50) is > 46 µM.

In the case of `O=[C@](OC)[C@@H]3[C@@]2([H])C[C@@](N4C[C@@]([H])2CC[C@@H]3O)([H])C1=C(CC4)C(C=CC=C5)=C5N1`, the concentration for half-maximal inhibition (IC50) is > 46 µM.

In the case of `CC[C@H](C)C(=O)O[C@H]1CCC=C2C=C[C@H](C)[C@H](CC[C@@H]3C[C@@H](O)CC(=O)O3)[C@H]21`, the IC50 was > 46 µM.

For `C[C@H](C(=O)[O-])c1cccc(Oc2ccccc2)c1.C[C@H](C(=O)[O-])c1cccc(Oc2ccccc2)c1.O.O.[Ca+2]`, the half-maximal inhibitory concentration (IC50) is > 46 µM.

A word on the IC50: it is the midpoint of a concentration-inhibition curve.

For the origin of these results see the supplement of paper PMC3493320.
